Measurements published in patent publication US9133230B2, “Hydrazone derivatives having potent antitumor activity toward multi-drug resistant tumor cells” (THE UNITED STATES OF AMERICA AS REPRESENTED BY THE …, priority 2011, dated 2015).

Tests used:
Assay type in all cases: cell-based
[1] = system: breast cancer cell lines; experiment: NCI 60 human tumor cell line screen, breast; settings: Homo sapiens, arithmetic mean of two to nine cancer cell lines, read-out: Inhibitory concentration GI50, breast
Text: (§1) Selected compounds were submitted for testing in the organ-specific panel of human tumor cell lines at the National Cancer Institute, Bethesda, Md. This screen utilized 60 human tumor cell lines, representing leukemia, melanoma, and cancers of the lung, colon, brain, ovary, kidney, prostate, and breast (Boyd, M. R., “Status of the NCl preclinical antitumor drug discovery screen”. In Principles and practice of oncology updates; De Vita, V. T., Jr. Hellman, S., Rosenberg, S. A., Eds.; Lippincott: Philadelphia, Pa., 1989; Vol. 3, pp 1-12).
(§2) The MG MID value is the average of the GI50 values for all the cell lines tested for drug concentrations in the range of 10^−4-10^−8 M (See website domain: dtp.nci.nih.gov/dtp).

[2] = system: ovarian cancer cell lines; experiment: NCI 60 human tumor cell line screen, ovarian; settings: Homo sapiens, arithmetic mean of two to nine cancer cell lines, read-out: Inhibitory concentration GI50, ovarian
Text: as §1, §2

[3] = system: nonsmall cell lung cancer cell lines; experiment: NCI 60 human tumor cell line screen, NSCL; settings: Homo sapiens, arithmetic mean of two to nine cancer cell lines, read-out: Inhibitory concentration GI50, NSCL
Text: as §1, §2

[4] = system: CNS cancer cell lines; experiment: NCI 60 human tumor cell line screen, CNS; settings: Homo sapiens, arithmetic mean of two to nine cancer cell lines, read-out: Inhibitory concentration GI50, CNS
Text: as §1, §2

[5] = system: human colorectal carcinoma HT29; experiment: Western blot of signal transduction pathways in HT29 cells; settings: HT29, IC50 dose
Procedure: The newly synthesized hydrazones RPC038, RPC042, and RPC046 had shown anti-tumor activity against 60 human cancer cell lines panel of the National Cancer Institute and on multi-drug resistant cell lines. The present studies were conducted to evaluate their action on signal transduction pathways in human colorectal carcinoma HT29. All the three compounds were examined at their IC50 doses.
Human colorectal carcinoma HT29 cells were obtained from the National Cancer Institute, Bethesda, Md., USA, and maintained in 5% CO2 at 37° C. in minimum essential media (Life Technologies, Inc., Grand Island, N.Y., USA) supplemented with 1% penicillin, streptomycin (Invitrogen, Carlsbad, Calif., USA), and 10% fetal bovine serum for optimal growth. HT29 cells (1×10^6) were plated in […], and 24 h later, fresh media was added and treated with the RPC038, RPC042 and RPC046 for indicated time points (2, 4, 8, 16 and 24 h). The cells were then washed with cold phosphate buffered saline (PBS) and taken in 1 ml PBS on ice and centrifuged at 4° C. The pellet was resuspended in appropriate volumes of radio immunoprecipitation assay buffer with protease inhibitor, kept on ice for 45 min and subsequently centrifuged at 4° C. An aliquot of supernatant (protein extract) was used to estimate the protein concentration. An aliquot of protein extract (40 μg) was subjected to Western blot analysis on a 12% polyacrylamide gel and transferred to nitrocellulose membrane. Blots were blocked, incubated with primary anti-pMEK, pERK, pJNK, pcjun, ERK, JNK, Cjun, Caspase-8, Caspase-6, PARP cleavage, or GAPDH antibodies (Cell Signaling Technology, Danvers, Mass.) and then conjugated with a secondary anti-mouse or an anti-rabbit horseradish […] antibody, and detected by ChemiDoc™ XRS+ System with Image Lab™ Software.

[6] = system: 60 human tumor cell lines; experiment: NCI 60 human tumor cell line screen, all cell lines
Text: as §1, §2

[7] = system: HL60-VCR; experiment: MTS cytotoxicity on MDR tumor cells, HL60-VCR; settings: HL60/VCR, Vincristine (VCR) resistant, 72 hr incubation
[8] = system: human breast carcinoma MCF-7; experiment: MTS cytotoxicity assay, MCF-7; settings: Homo sapiens, MCF7, 48 h incubation
Procedure: (§3) In order to obtain information about the growth-inhibiting action of hydrazones reported in the present invention on tumor cells, growth inhibition was assessed for the following human tumor cell lines: human myelogenous leukemia K562, human cervical adenocarcinoma HeLa, human colon adenocarcinoma Caco-2, human colon carcinoma HT-29, human colon carcinoma HCT-15, and human breast carcinoma MCF-7.
(§4) The K562, HeLa, HT-29, HCT-15, Caco-2, and MCF-7 cell lines were obtained from the American type Culture Collection (ATCC, Manassas, Va.). K562 cells were maintained in RPMI 1640 medium (Gibco/Life Technologies, Gaithersburg, Md.) containing 10% heat-inactivated fetal bovine serum (FBS) (Atlanta Biologicals, Atlanta, Ga.) and 10000 U/L penicillin and 50 mg/L streptomycin. HeLa, HT-29, HCT-15, Caco-2 and MCF-7 cells were maintained in MEM with Earl's balanced salts, 10% FBS, penicillin, and streptomycin as above. Logarithmically growing HT-29, Caco-2, and MCF-7 cells were incubated with 0.05% trypsin containing 1 mM EDTA at 37° C. for about 5 min until cells were nonadherent and formed a single cell suspension. Trypsin activity was neutralized by adding 20-fold excess of the serum-containing medium. Cells were cultured at 37° C. in an atmosphere of air and 5% CO2.
(§5) Cytotoxicity assays were conducted by tetrazolium reduction of 3-(4,5-dimethylthiazol-2-yl)-5-(3-carboxymethoxyphenyl)-2-(4-sulfophenyl)-2H-tetrazolium (MTS) with N-methylphenazonium methyl sulfate (PMS) (CellTiter Assay, Promega, Madison, Wis.). Logarithmically growing cells were plated in 0.1 mL aliquots in 96-well microtiter plates. Cells were plated at an initial density of about 5000 cells/mL and allowed to acclimatize for 24 h. Cell suspensions were treated with various dilutions of compounds in triplicate, mixed well, and allowed to incubate for 48 h at 37° C. in an atmosphere of air and 5% CO2. To the cell suspension was added 20 μL of tetrazolium reagent, the mixture was incubated for 2 h at 37° C. in an atmosphere of air and 5% CO2, and absorbance at 490 nm was read by microplate reader. Control plates with serial dilutions of cell types were counted as a control for the assay. In all cases, controls indicated a linear response versus cell number, R^2≧0.99.

[9] = system: HL60; experiment: MTS cytotoxicity on MDR tumor cells, HL60; settings: Homo sapiens, HL-60, Vincristine (VCR) sensitive, 72 hr incubation
[10] = system: human colorectal carcinoma HT29; experiment: Annexin-V FACS analysis of apoptosis; settings: FIGS. 3 and 4, treated versus control cells
Procedure: This activation was through ERK signaling and not through JNK signaling, resulting in PARP cleavage after 16 h. […] Activation of NFkB (p50) was also observed following treatment with these compounds.

[11] = system: human cervical adenocarcinoma HeLa; experiment: MTS cytotoxicity assay, HeLa; settings: Homo sapiens, HeLa, 48 h incubation
Procedure: as §3, §4, §5

C(=NNc1ncnc2[nH]cnc12)c1ccccn1 [I-18, 6-(2-(Pyridin-2-ylmethylene)hydrazinyl)-9H-purine]
GI50 [1]: 1150 nM
GI50 [2]: 629 nM
GI50 [3]: 1230 nM
GI50 [4]: 633 nM
phosphorylation of ERK (time) ([5]; Western blot pERK): 4 h
phosphorylation of JNK ([5]; Western blot pJNK (results not shown)): without phosphorylation of JNK
MEK activation (time) ([5]; Western blot pMEK): 2 h
activation of cjun (time) ([5]; Western blot pcjun): 6 h
Caspase activation ([5]; initial studies): Caspase-3 activation through Caspase-6 and not through Caspase-8
mean GI50 (MG-MID) ([6]; Homo sapiens, average of the GI50 values for all the cell lines tested, drug concentrations 10^−4-10^−8 M, read-out: MG-MID (mean graph midpoint)): 977 nM
cells found to be the most sensitive ([6]; NCI screen, by cancer type): prostate, ovarian, CNS, and melanoma cancer cell lines
GI50 [7]: 700 nM
GI50 [8]: 3200 nM
GI50 [9]: 1200 nM
Apoptosis (Annexin-V, FACS analysis) [10]: Apoptosis was also established
GI50 [11]: 1900 nM
